Tests used:
[1] = system: Human immunodeficiency virus 1; assay: Antiviral activity against wild type HIV1 3B infected in human MT2 cells assessed as virus-induced cytopathic effect after 5 days by XTT assay; type: functional, organism-based; conditions: Human immunodeficiency virus 1, 3B, MT2, 120 h
Protease = Protease (Human immunodeficiency virus 1, UniProt Q9YQ12); assay: Inhibition of HIV1 protease using fluorogenic hexapeptide substrate (2-aminobenzoyl)Thr-Ile-Nle-(p-nitro)Phe-Gln-Arg by fluorimeter
[2] = system: Human immunodeficiency virus 1; assay: Fold resistance, ratio of EC50 for HIV1 3B harboring protease I84V/L90M mutant infected in human MT2 cells to EC50 for wild type HIV1 3B infected in human MT2 cells; type: functional
[3] = system: Human immunodeficiency virus 1; assay: Fold resistance, ratio of EC50 for HIV1 3B harboring protease M46I/I50V mutant infected in human MT2 cells to EC50 for wild type HIV1 3B infected in human MT2 cells; type: functional
[4] = system: Human immunodeficiency virus 1; assay: Antiviral activity against wild type HIV1 3B infected in human MT2 cells assessed as virus-induced cytopathic effect after 5 days by XTT assay relative to in the presence of 50% pooled human serum; type: functional
[5] = Cytotoxicity against human MT2 cells assessed as reduction in cell viability after 5 days by XTT assay; type: cell-based
[6] = Cytotoxicity against human HepG2 cells assessed as reduction in cell viability after 5 days by XTT assay; type: cell-based
[7] = Intrinsic clearance in human liver microsomes; type: ADME; conditions: read-out: CLH
[8] = (§1) Intrinsic clearance in human liver microsomes in presence of 1 uM RTV; type: ADME; conditions: liver microsomes, with RTV 1 uM, read-out: CLH
[9] = (§2) Intrinsic clearance in human liver microsomes in presence of 1 uM COBI; type: ADME; conditions: liver microsomes, with COBI 1 uM, read-out: CLH
[10] = system: Human immunodeficiency virus 1; assay: Fold resistance, ratio of EC50 for HIV1 3B harboring protease G48V/V82A/I84V/L90M mutant infected in human MT2 cells to EC50 for wild type HIV1 3B infected in human MT2 cells; type: functional
[11] = Clearance in Beagle dog at 2 mg/kg, iv over 30 mins; type: ADME, organism-based, Canis lupus familiaris; set-up: dose 2 mg/kg, route intravenous; conditions: in vivo
[12] = Oral bioavailability in Beagle dog at 10 mg/kg; type: ADME, organism-based, Canis lupus familiaris; conditions: in vivo
[13] = system: Human immunodeficiency virus 1; assay: Fold resistance, ratio of EC50 for HIV1 3B harboring protease D30N/54V/L90M mutant infected in human MT2 cells to EC50 for wild type HIV1 3B infected in human MT2 cells; type: functional
[14] = Oral bioavailability in Beagle dog at 10 mg/kg in presence of 10 mg/kg COBI; type: ADME, organism-based, Canis lupus familiaris; conditions: in vivo
[15] = system: Human immunodeficiency virus 1; assay: Fold resistance, ratio of EC50 for HIV1 3B harboring protease M46I/V82T/L90M mutant infected in human MT2 cells to EC50 for wild type HIV1 3B infected in human MT2 cells; type: functional
[16] = system: Human immunodeficiency virus 1; assay: Fold resistance, ratio of EC50 for HIV1 3B harboring protease G48V/I54V/V82S mutant infected in human MT2 cells to EC50 for wild type HIV1 3B infected in human MT2 cells; type: functional
[17] = system: Human immunodeficiency virus 1; assay: Antiviral activity against wild type HIV1 3B infected in human MT2 cells assessed as fold resistance after 11 months incubation; type: functional
Liver microsome [18] = assay: as §1; type: ADME; conditions: microsomes
Liver microsome [19] = assay: as §2; type: ADME; conditions: microsomes

Protease, sequence (Q9YQ12 whole entry): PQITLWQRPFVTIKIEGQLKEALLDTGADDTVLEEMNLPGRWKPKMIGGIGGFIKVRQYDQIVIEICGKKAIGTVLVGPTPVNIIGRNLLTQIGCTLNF

Compound | EC50 [1] [nM] | Ki (Protease) [nM] | Ratio EC50 [2] | Ratio EC50 [3] | Ratio EC50 [4] | CC50 at 120 h [5] [nM] | CC50 at 120 h [6] [nM] | further results
COc1ccc(S(=O)(=O)N(CC(C)C)C[C@@H](O)[C@H](Cc2ccccc2)NC(=O)O[C@H]2CO[C@H]3OCC[C@H]32)cc1 | 0.35 | – | – | – | – | – | – | –
COC(=O)c1ccc(C[C@H](NC(=O)O[C@H]2CO[C@H]3OCC[C@H]32)[C@H](O)CN(CC(C)C)S(=O)(=O)c2ccc(OC)cc2)cc1 | 0.3 | 0.0054 | 1.2 | 11 | – | – | – | –
CCOP(=O)(Cc1ccc(C[C@H](NC(=O)O[C@H]2CO[C@H]3OCC[C@H]32)[C@H](O)CN(CC(C)C)S(=O)(=O)c2ccc(OC)cc2)cc1)OCC | 5.9 | 0.0084 | 5.8 | 36 | 2.4 | – | – | –
CC(C)(C)NC(=O)[C@@H]1CN(Cc2cccnc2)CCN1C[C@@H](O)C[C@@H](Cc1ccccc1)C(=O)N[C@H]1c2ccccc2C[C@H]1O | 12.4 | – | – | – | – | > 100000 | 74700 | –
CCOP(=O)(OCC)c1ccc(C[C@H](NC(=O)O[C@H]2CO[C@H]3OCC[C@H]32)[C@H](O)CN(CC(C)C)S(=O)(=O)c2ccc(OC)cc2)cc1 | 7.5 | 0.0012 | 0.5 | 4.5 | – | – | – | –
Cc1cccc(C)c1OCC(=O)N[C@@H](Cc1ccccc1)[C@@H](O)C[C@H](Cc1ccccc1)NC(=O)[C@H](C(C)C)N1CCCNC1=O [LOPINAVIR] | 5.6 | – | – | – | – | 67900 | 27800 | microsomal CLint [7]: 544 µL/min/mg; microsomal CLint [8]: 1.6 µL/min/mg; microsomal CLint [9]: 2.7 µL/min/mg
COc1ccc(S(=O)(=O)N(CC(C)C)C[C@@H](O)[C@H](Cc2ccc(OCP(=O)(OC)OC)cc2)NC(=O)O[C@H]2CO[C@H]3OCC[C@H]32)cc1 | 18.8 | 0.0181 | 0.3 | – | – | – | – | –
COc1ccc(S(=O)(=O)N(CC(C)C)C[C@@H](O)[C@H](Cc2ccc(OCP(=O)(OC(C)C)OC(C)C)cc2)NC(=O)O[C@H]2CO[C@H]3OCC[C@H]32)cc1 | 1.9 | 0.0057 | 1.3 | 6 | 3.6 | – | – | –
COc1ccc(C[C@H](NC(=O)O[C@H]2CO[C@H]3OCC[C@H]32)[C@H](O)CN(CC(C)C)S(=O)(=O)c2ccc(OC)cc2)cc1 | 0.06 | – | 17 | 157 | – | – | – | –
CC(C)CN(C[C@@H](O)[C@H](Cc1ccccc1)NC(=O)O[C@H]1CO[C@H]2OCC[C@H]21)S(=O)(=O)c1ccc(N)cc1 | 2.3 | – | – | – | – | > 100000 | 95500 | microsomal CLint [7]: 30.9 µL/min/mg; microsomal CLint [8]: 1.6 µL/min/mg; microsomal CLint [9]: 0.9 µL/min/mg
CCOP(=O)(COc1ccc(C[C@H](NC(=O)O[C@H]2CO[C@H]3OCC[C@H]32)[C@H](O)CN(CC(C)C)S(=O)(=O)c2ccc(OC)cc2)cc1)OCC | 3.5 | 0.0081 | 0.7 | 2.4 | 2.7 | > 100000 | 61300 | Ratio EC50 [10]: 0.6; clearance [11]: 35.5 mL/min/kg; bioavailability [12]: 6.9%; Ratio EC50 [13]: 0.2; bioavailability [14]: 100%; Ratio EC50 [15]: 0.9; microsomal CLint [7]: 9.2 µL/min/mg; microsomal CLint [8]: 2.6 µL/min/mg; Ratio EC50 [16]: 0.1; microsomal CLint [9]: 1 µL/min/mg; fold change (FC) [17]: 15
CCOP(=O)(CCc1ccc(C[C@H](NC(=O)O[C@H]2CO[C@H]3OCC[C@H]32)[C@H](O)CN(CC(C)C)S(=O)(=O)c2ccc(OC)cc2)cc1)OCC | 2.1 | 0.0091 | 0.4 | 3.1 | 2.6 | – | – | –
CC(C)c1nc(CN(C)C(=O)N[C@H](C(=O)N[C@@H](Cc2ccccc2)C[C@H](O)[C@H](Cc2ccccc2)NC(=O)OCc2cncs2)C(C)C)cs1 [RITONAVIR] | 32.2 | – | – | – | – | – | – | –
COc1ccc(S(=O)(=O)N(CC(C)C)C[C@@H](O)[C@H](Cc2ccc(O)cc2)NC(=O)O[C@H]2CO[C@H]3OCC[C@H]32)cc1 | 6.9 | 0.0053 | 0.8 | 5.1 | – | – | – | –
Cc1c(O)cccc1C(=O)N[C@@H](CSc1ccccc1)[C@H](O)CN1C[C@H]2CCCC[C@H]2C[C@H]1C(=O)NC(C)(C)C | 4.9 | 0.732 | >92 | 16.5 | 19.2 | 19100 | 7400 | Ratio EC50 [10]: 30.6; Ratio EC50 [13]: >68; Ratio EC50 [15]: 26; Ratio EC50 [16]: 25.4
CC(C)(C)NC(=O)[C@@H]1C[C@@H]2CCCC[C@@H]2CN1C[C@@H](O)[C@H](Cc1ccccc1)NC(=O)[C@H](CC(N)=O)NC(=O)c1ccc2ccccc2n1 | 13.6 | – | – | – | – | 32300 | 12400 | –
COC(=O)N[C@H](C(=O)N[C@@H](Cc1ccccc1)[C@@H](O)CN(Cc1ccc(-c2ccccn2)cc1)NC(=O)[C@@H](NC(=O)OC)C(C)(C)C)C(C)(C)C [ATAZANAVIR] | 2.2 | 0.0479 | >100 | 1.9 | 2.4 | 79800 | 26500 | Ratio EC50 [10]: 102; Ratio EC50 [13]: 141; Ratio EC50 [15]: 43.9; microsomal CLint [7]: 23 µL/min/mg; CLH (Liver microsome [18]): 1.4 µL/min/mg; Ratio EC50 [16]: 127; CLH (Liver microsome [19]): 0.9 µL/min/mg
CC(C)CN(C[C@@H](O)[C@H](Cc1ccccc1)NC(=O)O[C@H]1CCOC1)S(=O)(=O)c1ccc(N)cc1 | 24 | 0.345 | 16.3 | 159 | – | > 100000 | 98400 | Ratio EC50 [10]: 20; Ratio EC50 [13]: 0.8; Ratio EC50 [15]: 5.9; Ratio EC50 [16]: 0.9

Source: ChEMBL document CHEMBL3217662 (Medchemcomm, 2011)
